According to patent US11707442B2, “Antibacterial and antifungal compounds” (The General Hospital Corporation, priority 2015, dated 2023):
In brackets after ≈: the same amount, converted by molar mass. Entries after “also recorded” stand apart in the source; their conditions may differ. Where two headings read alike, the source gives them in different places.

Assays:
[1] = system: S. aureus; assay: Minimal inhibitory concentration (MIC), broth microdilution; type: cell-based, Staphylococcus aureus; conditions: for MIC: Staphylococcus aureus
Source text: (§1) Bacterial strains and growth conditions and persister isolation: methicillin-resistant S. aureus (MRSA) strain MW2 BAA-1707, vancomycin-resistant S. aureus strain VRS 1, 11 clinical S. aureus isolates, 8 clinical Enterococcus faecium isolates, Klebsiella pneumoniae WGLW2 (BEI Resources, Manassas, Va., USA), Acinetobacter baumannii ATCC 17978, Pseudomonas aeruginosa PA14, and Enterobacter aerogenes ATCC 13048 were used to test antimicrobial activity (See Table 1a). S. aureus and E. faecium strains were grown in tryptic soy broth (TSB) (BD, Franklin Lakes, N.J., USA) or brain-heart infusion (BHI) broth (BD, Franklin Lakes, N.J., USA), respectively at 37° C. at 225 rpm. K. pneumoniae, A. baumannii, P. aeruginosa, and E. aerogenes were grown in Luria Bertani (LB) broth (BD, Franklin Lakes, N.J., USA).
(§2) To test the bacterial MICs for compounds described herein, the total volume in each well was 100 μl of test compounds and bacterial cells in MH broth. […] The bacterial concentration was adjusted to an initial OD600 of 0.03. After incubation at 35° C. for 18 hrs, the absorbance was measured at 595 nm in accordance with CLSI document M07-A8. The MICs of antibiotics were determined by the standard microdilution method recommended by the Clinical and Laboratory Standards Institute.

[2] = system: E. faecium; assay: MIC, broth microdilution; type: cell-based, Enterococcus faecium; conditions: for MIC: Enterococcus faecium
Source text: as §1, §2

[3] = system: E. faecalis; assay: MIC, broth microdilution; type: cell-based, Enterococcus faecalis; conditions: result in words
Method: To test the bacterial MICs for compounds described herein, the total volume in each well was 100 μl of test compounds and bacterial cells in MH broth. Two-fold serial dilutions were carried out to get compounds in the concentration range 0.0625-64 μg/ml. The bacterial concentration was adjusted to an initial OD600 of 0.03. After incubation at 35° C. for 18 hrs, the absorbance was measured at 595 nm in accordance with CLSI document M07-A8. The MICs of antibiotics were determined by the standard microdilution method recommended by the Clinical and Laboratory Standards Institute.

[4] = system: C. elegans infected with MRSA strain MW2; type: in vivo; conditions: result in words
Method: The C. elegans-MRSA liquid infection assay has been described (Rajamuthiah et al. Plos One. 2014; 9(2):e89189). In brief, 4,500 glp-4 (bn2); sek-1(km4) L1 hatchlings were grown on SK-HB101 agar plates for 52 hours at the restrictive temperature of 25° C. until animals became sterile young adults and later harvested with M9 buffer. S. aureus MW2 was grown overnight at 37° C. in TSB, first under aerobic conditions and later shifted to anaerobic growth conditions at 37° C. The infection assay was performed in standard 384-well assay plates, in the presence of the compound being tested or 1% dimethyl sulfoxide (DMSO) as a control. Bacteria were added to the wells at a final OD600 of 0.06, followed by the use of a Complex Object Parametric Analyzer and Sorter (COPAS) large particle sorter (Union Biometrica, Holliston, Mass., USA) to transfer 15 adult worms to each well of an assay plate. After 5 days of incubation in a humidified chamber at 25° C., the bacteria and other debris were washed from the wells with a microplate washer and the worms were stained with the vital dye Sytox Orange (Life Technologies). After overnight incubation at 25° C. in a humidified chamber, the plates were imaged using an Image Xpress Micro automated microscope (Molecular Devices, Sunnyvale, Calif., USA), capturing both transmitted light and TRITC (535 nm excitation, 610 nm emission) fluorescent images with a 2× objective. The images from the infection assay were processed using the open source image analysis software CellProfiler and analysis modules as described previously. The ratio of Sytox worm area to bright field worm area, and the resultant percentage survival data, is calculated by the software for each well of the assay plates. The assay was performed in triplicate comparing the survival of worms at various concentrations of drugs.
Killing assays were carried out as described in Methods using S. aureus MRSA MW2 and 10 μg/ml retinoids, 10 μg/ml vancomycin (positive control), or 1% DMSO (negative control) at 25° C. for 5 days. Data are representative of three independent experiments. (B) Chemical structures of synthetic retinoids. (C) Growth of MRSA strain MW2 exposed to the indicated concentrations of compounds was quantified by measuring OD600 after 18 h in tryptic soy broth (TSB). (D) C. elegans infected with MRSA strain MW2 was treated with indicated concentrations of compounds. Percent survival of C. elegans was normalized to C. elegans treated with DMSO. (E-F) MRSA persisters prepared as described in Methods were treated with the indicated concentrations of each retinoid. Viability was measured by serial dilution and plating on TSA plates. The data points on the x-axis are below the level of detection (2×10^2 CFU/ml). (E,F) Results are shown as means±s.d.; n=3.

[5] = system: K. pneumonia WGLW2; assay: MIC, broth microdilution; type: cell-based, Klebsiella pneumoniae; conditions: Klebsiella pneumoniae; K. pneumonia WGLW2; read-out: Minimum inhibitory concentration
Source text: as §1, §2

[6] = system: A. baumannii; assay: MIC, broth microdilution; type: cell-based, Acinetobacter baumannii; conditions: Acinetobacter baumannii, ATCC17978; A. baumannii ATCC 17978; read-out: Minimum inhibitory concentration
Source text: as §1, §2

[7] = system: P. aeruginosa; assay: MIC, broth microdilution; type: cell-based, Pseudomonas aeruginosa; conditions: Pseudomonas aeruginosa; P. aeruginosa PA14; read-out: Minimum inhibitory concentration
Source text: as §1, §2

[8] = system: E. aerogenes ATCC 13048; assay: MIC, broth microdilution; type: cell-based, Enterobacter aerogenes; conditions: Klebsiella aerogenes, ATCC13048; E. aerogenes ATCC 13048; read-out: Minimum inhibitory concentration
Source text: as §1, §2

In the case of `COc1ccc(-c2ccc3cc(C(=O)O)ccc3c2)cc1C12CC3CC(CC(C3)C1)C2` [Adapalene, 6-(4-methoxy-3-tricyclo[3.3.1.13,7]dec-1-ylphenyl)-2-naphthalenecarboxylic acid], the “direct inhibition of MRSA growth” value ([1]; MRSA MW2, result in words) is reported as “did not inhibit; also recorded: did not have significant antimicrobial activity”, the “susceptibility of E. faecium” value ([2]; result in words) is reported as “not inhibited” and the “susceptibility of E. faecalis” value [3] is reported as “not inhibited”. For the same compound, the “rescue of C. elegans from MRSA infection” value [4] was “nor did it protect”.

Compound `Cc1onc(-c2ccccc2)c1C(=O)N[C@@H]1C(=O)N2[C@@H]1SC(C)(C)[C@@H]2C(=O)O` [Oxacillin] has an MIC ([1]; S. aureus BF1, read-out: Minimum inhibitory concentration) of over 64 µg/mL, an MIC ([1]; S. aureus BF2, read-out: Minimum inhibitory concentration) of over 64 µg/mL and an MIC ([1]; S. aureus BF3, read-out: Minimum inhibitory concentration) of 32 µg/mL (≈ 79.7 µM). The MIC ([1]; S. aureus BF4, read-out: Minimum inhibitory concentration) was 16 µg/mL (≈ 39.9 µM), the MIC ([1]; S. aureus BF5, read-out: Minimum inhibitory concentration) was over 64 µg/mL and the MIC ([1]; S. aureus BF6, read-out: Minimum inhibitory concentration) was 1 µg/mL (≈ 2.49 µM). For the same compound, the MIC ([1]; S. aureus BF7, read-out: Minimum inhibitory concentration) was over 64 µg/mL, the MIC ([1]; S. aureus BF8, read-out: Minimum inhibitory concentration) was over 64 µg/mL and the MIC ([1]; S. aureus BF9, read-out: Minimum inhibitory concentration) was 0.25 µg/mL (≈ 0.623 µM). The MIC ([1]; S. aureus BF10, read-out: Minimum inhibitory concentration) was over 64 µg/mL, the MIC ([1]; S. aureus BF11, read-out: Minimum inhibitory concentration) was over 64 µg/mL and the MIC ([1]; S. aureus MW2, read-out: Minimum inhibitory concentration) was 64 µg/mL (≈ 159 µM). It also gave an MIC ([1]; S. aureus VRS1, read-out: Minimum inhibitory concentration) of over 64 µg/mL, an MIC ([1]; Staphylococcus aureus clinical isolate BF1 (Table 5), read-out: Drug MIC) of over 64 µg/mL and an MIC ([1]; Staphylococcus aureus clinical isolate BF2 (Table 5), read-out: Drug MIC) of over 64 µg/mL. The MIC ([1]; Staphylococcus aureus clinical isolate BF3 (Table 5), read-out: Drug MIC) was 32 µg/mL (≈ 79.7 µM), the MIC ([1]; Staphylococcus aureus clinical isolate BF4 (Table 5), read-out: Drug MIC) was 16 µg/mL (≈ 39.9 µM) and the MIC ([1]; Staphylococcus aureus clinical isolate BF5 (Table 5), read-out: Drug MIC) was over 64 µg/mL. The MIC ([1]; Staphylococcus aureus clinical isolate BF6 (Table 5), read-out: Drug MIC) was 1 µg/mL (≈ 2.49 µM), the MIC ([1]; Staphylococcus aureus clinical isolate BF7 (Table 5), read-out: Drug MIC) was over 64 µg/mL and the MIC ([1]; Staphylococcus aureus clinical isolate BF8 (Table 5), read-out: Drug MIC) was over 64 µg/mL. The MIC ([1]; Staphylococcus aureus clinical isolate BF9 (Table 5), read-out: Drug MIC) was 0.25 µg/mL (≈ 0.623 µM), the MIC ([1]; Staphylococcus aureus clinical isolate BF10 (Table 5), read-out: Drug MIC) was over 64 µg/mL and the MIC ([1]; Staphylococcus aureus clinical isolate BF11 (Table 5), read-out: Drug MIC) was over 64 µg/mL. For the same compound, the MIC ([2]; E. faecium C68, read-out: Minimum inhibitory concentration) was over 64 µg/mL, the MIC ([2]; E. faecium D14, read-out: Minimum inhibitory concentration) was over 64 µg/mL and the MIC ([2]; E. faecium D24, read-out: Minimum inhibitory concentration) was over 64 µg/mL. It also gave an MIC ([2]; E. faecium D25, read-out: Minimum inhibitory concentration) of over 64 µg/mL, an MIC ([2]; E. faecium D29, read-out: Minimum inhibitory concentration) of over 64 µg/mL and an MIC ([2]; E. faecium E007, read-out: Minimum inhibitory concentration) of over 64 µg/mL. For the same compound, the MIC ([2]; E. faecium WB213, read-out: Minimum inhibitory concentration) was over 64 µg/mL, the MIC ([2]; E. faecium WC176, read-out: Minimum inhibitory concentration) was over 64 µg/mL and the MIC ([2]; Enterococcus faecium clinical isolate C68 (Table 6), read-out: Drug MIC) was over 64 µg/mL. The MIC ([2]; Enterococcus faecium clinical isolate D14 (Table 6), read-out: Drug MIC) was 2 µg/mL (≈ 4.98 µM), the MIC ([2]; Enterococcus faecium clinical isolate D24 (Table 6), read-out: Drug MIC) was 1 µg/mL (≈ 2.49 µM) and the MIC ([2]; Enterococcus faecium clinical isolate D25 (Table 6), read-out: Drug MIC) was 1 µg/mL (≈ 2.49 µM). It also gave an MIC ([2]; Enterococcus faecium clinical isolate D29 (Table 6), read-out: Drug MIC) of 2 µg/mL (≈ 4.98 µM), an MIC ([2]; Enterococcus faecium clinical isolate W312 (Table 6), read-out: Drug MIC) of over 64 µg/mL and an MIC ([2]; Enterococcus faecium clinical isolate WC176 (Table 6), read-out: Drug MIC) of over 64 µg/mL. For the same compound, the MIC [5] was over 64 µg/mL, the MIC [6] was over 64 µg/mL and the MIC [7] was over 64 µg/mL. For the same compound, the MIC [8] was over 64 µg/mL.
